The nature of this series: recombinant UMI read abundance after kanamycin selection (control-corrected) (log10(CPM+1)); higher = more efficient recombination; extreme values may be limits of the assay; sequences stand for … in AGTGCAGAGAAAATCGGCCAGTTTTCTCTGCCTGCAGTCCGCATGCCGTGGGACCCCTTGGGTTCTAACCTGTTGCCTAGATTTATGCAGCGGACTGCCTTTCTCCCAAAGTGATAAACCGG…AGGTTGGTTTCACT; site = the 11-nt donor. The method, boiled down: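 For the IS621 bridge recombinase, a pooled Escherichia coli screen tested donor and donor-binding-loop pairs. Cells received the pair library together with a target plasmid encoding a fixed target and T7-inducible recombinase, then went onto IPTG (0.07 mM) plus kanamycin or unselected plates in duplicate. After PCR across the donor–target junction and sequencing, recombinant UMI counts were normalized to CPM, averaged, and scaled by control-derived factors. Each value is given as log10(CPM+1).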
Turning to “ATTTATACATGGACCGGTTTTCCCGGTAATCCGTATTTGAC (site ATTTATACTGT)”, the “recombinant UMI read abundance (log10)” value amounted to 0.544.

For “ATTTCTCCATGGACCGGTTTTCCCGGTAATCCGTATTTGAC (site ATTTCTCCTGT)”, the “recombinant UMI read abundance (log10)” value stood at 0.

Take “CAAAATGCATGGACCGGTTTTCCCGGTAATCCGTATTTGAC (site CAAAATGCTGT)”: the “recombinant UMI read abundance (log10)” value came to 2.14.

As for “CAAACATCATGGACCGGTTTTCCCGGTAATCCGTATTTGCT (site CAAACATCTAG)”, the “recombinant UMI read abundance (log10)” value amounted to 1.94.

As to “CAAACATCATGGACCGGTTTTCCCGGTAATCCGTATTTGCT (site CGATCATCTAG)”, the “recombinant UMI read abundance (log10)” value is 0.

In the case of “CAAACGCCATGGACCGGTTTTCCCGGTAATCCGTATTTGTG (site CAAACGCCTCA)”, the “recombinant UMI read abundance (log10)” value was 0.56.

With “CAAACGCCATGGACCGGTTTTCCCGGTAATCCGTATTTGTG (site CAACCGCCTCA)”, the “recombinant UMI read abundance (log10)” value is 0.033.

For the sequence “CAAACGCCATGGACCGGTTTTCCCGGTAATCCGTATTTGTG (site CAAGCGCCTCA)”, the “recombinant UMI read abundance (log10)” value was 0.0253.

Regarding “CAAACGCCATGGACCGGTTTTCCCGGTAATCCGTATTTGTG (site CAATCGCCTCA)”, the “recombinant UMI read abundance (log10)” value was 0.0256.

In the case of “CAAATAACATGGACCGGTTTTCCCGGTAATCCGTATTTGCA (site CAAATAACTTG)”, the “recombinant UMI read abundance (log10)” value is 1.1.

On to “CAAATCCCATGGACCGGTTTTCCCGGTAATCCGTATTTGCT (site CAAATCCCTAG)”, for which the “recombinant UMI read abundance (log10)” value came to 0.

As to “CAAATCCCATGGACCGGTTTTCCCGGTAATCCGTATTTGCT (site CAACTCCCTAG)”, the “recombinant UMI read abundance (log10)” value came to 0.00602.

As for “CAAATCCCATGGACCGGTTTTCCCGGTAATCCGTATTTGCT (site CAAGTCCCTAG)”, the “recombinant UMI read abundance (log10)” value was 0.

As for “CAAATCCCATGGACCGGTTTTCCCGGTAATCCGTATTTGCT (site CAATTCCCTAG)”, the “recombinant UMI read abundance (log10)” value was 0.

Turning to “CAAATGGCATGGACCGGTTTTCCCGGTAATCCGTATTTGCA (site CAAATGGCTTG)”, the “recombinant UMI read abundance (log10)” value came out at 2.04.

As to “CAACAACCATGGACCGGTTTTCCCGGTAATCCGTATTTGTC (site CAACAACCTGA)”, the “recombinant UMI read abundance (log10)” value turned out to be 0.474.

As to “CAACAGGCATGGACCGGTTTTCCCGGTAATCCGTATTTGTA (site CAACAGGCTTA)”, the “recombinant UMI read abundance (log10)” value turned out to be 1.18.

Regarding “CAACATACATGGACCGGTTTTCCCGGTAATCCGTATTTGTG (site CAACATACTCA)”, the “recombinant UMI read abundance (log10)” value was 1.83.

As for “CAACCGCCATGGACCGGTTTTCCCGGTAATCCGTATTTGTG (site CAAACGCCTCA)”, the “recombinant UMI read abundance (log10)” value amounted to 0.00379.

For “CAACCGCCATGGACCGGTTTTCCCGGTAATCCGTATTTGTG (site CAACCGCCTCA)”, the “recombinant UMI read abundance (log10)” value is 0.00924.

Turning to “CAACCGCCATGGACCGGTTTTCCCGGTAATCCGTATTTGTG (site CAAGCGCCTCA)”, the “recombinant UMI read abundance (log10)” value came out at 0.0348.

Consider “CAACCGCCATGGACCGGTTTTCCCGGTAATCCGTATTTGTG (site CAATCGCCTCA)”, for which the “recombinant UMI read abundance (log10)” value was determined as 0.0138.

Regarding “CAACGCACATGGACCGGTTTTCCCGGTAATCCGTATTTGTT (site CAACGCACTAA)”, the “recombinant UMI read abundance (log10)” value was 1.62.

Take “CAAGAGCCATGGACCGGTTTTCCCGGTAATCCGTATTTGTG (site CAAGAGCCTCA)”: the “recombinant UMI read abundance (log10)” value is 1.28.

For “CAAGAGCCATGGACCGGTTTTCCCGGTAATCCGTATTTGTG (site CAAGCGCCTCA)”, the “recombinant UMI read abundance (log10)” value came to 0.0351.

On to “CAAGAGCCATGGACCGGTTTTCCCGGTAATCCGTATTTGTG (site CAAGGGCCTCA)”, for which the “recombinant UMI read abundance (log10)” value turned out to be 0.55.

As for “CAAGAGCCATGGACCGGTTTTCCCGGTAATCCGTATTTGTG (site CAAGTGCCTCA)”, the “recombinant UMI read abundance (log10)” value came to 0.0217.

As to “CAAGCAACATGGACCGGTTTTCCCGGTAATCCGTATTTGCT (site CAAGCAACTAG)”, the “recombinant UMI read abundance (log10)” value was found to be 1.57.

As to “CAAGCAACATGGACCGGTTTTCCCGGTAATCCGTATTTGCT (site CAAGCACCTAG)”, the “recombinant UMI read abundance (log10)” value is 0.

Consider “CAAGCAACATGGACCGGTTTTCCCGGTAATCCGTATTTGCT (site CAAGCAGCTAG)”, for which the “recombinant UMI read abundance (log10)” value came to 0.

Consider “CAAGCAACATGGACCGGTTTTCCCGGTAATCCGTATTTGCT (site CAAGCATCTAG)”, for which the “recombinant UMI read abundance (log10)” value was determined as 0.289.

“CAAGCCACATGGACCGGTTTTCCCGGTAATCCGTATTTGGG (site CAAGACACTCC)”: the “recombinant UMI read abundance (log10)” value was determined as 0.0254.

For “CAAGCCACATGGACCGGTTTTCCCGGTAATCCGTATTTGGG (site CAAGCCACTCC)”, the “recombinant UMI read abundance (log10)” value was found to be 0.408.

On to “CAAGCCACATGGACCGGTTTTCCCGGTAATCCGTATTTGGG (site CAAGGCACTCC)”, for which the “recombinant UMI read abundance (log10)” value came out at 0.00628.

Regarding “CAAGCCACATGGACCGGTTTTCCCGGTAATCCGTATTTGGG (site CAAGTCACTCC)”, the “recombinant UMI read abundance (log10)” value turned out to be 0.0106.

Turning to “CAAGCCCCATGGACCGGTTTTCCCGGTAATCCGTATTTGCT (site CAAGCCCCTAG)”, the “recombinant UMI read abundance (log10)” value came to 2.06.

For “CAAGCCGCATGGACCGGTTTTCCCGGTAATCCGTATTTGCT (site CAAGCAGCTAG)”, the “recombinant UMI read abundance (log10)” value is 2.06.

With “CAAGCCGCATGGACCGGTTTTCCCGGTAATCCGTATTTGCT (site CAAGCCGCTAG)”, the “recombinant UMI read abundance (log10)” value came to 2.56.

As to “CAAGCCGCATGGACCGGTTTTCCCGGTAATCCGTATTTGCT (site CAAGCGGCTAG)”, the “recombinant UMI read abundance (log10)” value amounted to 0.00324.

For “CAAGCCGCATGGACCGGTTTTCCCGGTAATCCGTATTTGCT (site CAAGCTGCTAG)”, the “recombinant UMI read abundance (log10)” value amounted to 0.

As for “CAAGCGCCATGGACCGGTTTTCCCGGTAATCCGTATTTGGG (site CAAGCGCCTCA)”, the “recombinant UMI read abundance (log10)” value worked out at 0.0177.

For “CAAGCGCCATGGACCGGTTTTCCCGGTAATCCGTATTTGGG (site CAAGCGCCTCC)”, the “recombinant UMI read abundance (log10)” value came out at 0.0155.

“CAAGCGCCATGGACCGGTTTTCCCGGTAATCCGTATTTGGG (site CAAGCGCCTCG)”: the “recombinant UMI read abundance (log10)” value is 0.0252.

On to “CAAGCGCCATGGACCGGTTTTCCCGGTAATCCGTATTTGGG (site CAAGCGCCTCT)”, for which the “recombinant UMI read abundance (log10)” value is 0.0195.

Turning to “CAAGCGCCATGGACCGGTTTTCCCGGTAATCCGTATTTGTG (site AAAGCGCCTCA)”, the “recombinant UMI read abundance (log10)” value amounted to 0.0176.

“CAAGCGCCATGGACCGGTTTTCCCGGTAATCCGTATTTGTG (site CAAACGCCTCA)”: the “recombinant UMI read abundance (log10)” value is 0.0285.

As for “CAAGCGCCATGGACCGGTTTTCCCGGTAATCCGTATTTGTG (site CAACCGCCTCA)”, the “recombinant UMI read abundance (log10)” value came to 0.0221.

Consider “CAAGCGCCATGGACCGGTTTTCCCGGTAATCCGTATTTGTG (site CAAGAGCCTCA)”, for which the “recombinant UMI read abundance (log10)” value was 0.0105.

For the sequence “CAAGCGCCATGGACCGGTTTTCCCGGTAATCCGTATTTGTG (site CAAGCACCTCA)”, the “recombinant UMI read abundance (log10)” value was found to be 0.0231.

Regarding “CAAGCGCCATGGACCGGTTTTCCCGGTAATCCGTATTTGTG (site CAAGCCCCTCA)”, the “recombinant UMI read abundance (log10)” value was 0.0168.

“CAAGCGCCATGGACCGGTTTTCCCGGTAATCCGTATTTGTG (site CAAGCGACTCA)”: the “recombinant UMI read abundance (log10)” value was 0.0185.

In the case of “CAAGCGCCATGGACCGGTTTTCCCGGTAATCCGTATTTGTG (site CAAGCGCCTAA)”, the “recombinant UMI read abundance (log10)” value came to 0.00762.

For the origin of these results see the supplement of paper PMC11208160.
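Also: IS621 bridge recombinase in Escherichia coli cells against a fixed T5 target plasmid.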
